US20250376498A1, “FUSION PROTEINS COMPRISING AN IMPROVED GLP-1 RECEPTOR AGONIST AND USES THEREOF” (Guangzhou Innogen Pharmaceutical Group Co., Ltd., priority 2022, published 2025)
Entries after “also recorded” stand apart in the source; their conditions may differ.

B1: YN-011: GLP-1 fusion protein of SEQ ID NO: 7: GLP-1 (A8G, G22E, R36G), linker peptide and IgG2/Fc domain (C222S, A330S, P331S) (protein)
chain: HGEGTFTSDVSSYLEEQAAKEFIAWLVKGGGSSGAPPPSGGGGSERKSCVECPPCPAPPVAGPSVFLFPPKPKDTLMISRTPEVTCVVVDVSHEDPEVQFNWYVDGVEVHNAKTKPREEQFNSTFRVVSVLTVVHQDWLNGKEYKCKVSNKGLPSSIEKTISKTKGQPREPQVYTLPPSREEMTKNQVSLTCLVKGFYPSDIAVEWESNGQPENNYKTTPPMLDSDGSFFLYSKLTVDKSRWQQGNVFSCSVMHEALHNHYTQKSLSLSPG

Legend:
Assay type in all cases: cell-based
SH-SY5Y neuronal cells [1] = test: TNF-α-induced decrease in SH-SY5Y cell viability (CCK-8); details: 60 ng/ml TNF-α, 48 hours; YN-011 10, 100, 500 nM; GABA 100 μM
Procedure: SH-SY5Y neuronal cells were digested using 0.25% trypsin to prepare a single-cell suspension. The single-cell suspension was seeded in a 96-well plate at a density of 10,000 cells per well in 100 μl of medium. The plate was placed in a CO2 incubator overnight (37° C., 5% CO2) to allow cell adhesion. The medium was replaced with medium containing 10% FBS or 5% FBS, and cells were stimulated with 20, 40, 60, 80, or 100 ng/ml TNF-α for 48 hours. Each drug treatment was performed in six replicate wells. After 48 hours of drug treatment, 10 μl of CCK-8 solution was added to each well, and the plate was gently shaken to mix the reagents. The plate was then incubated in a CO2 incubator for 1-4 hours. The absorbance at 450 nm was measured using a microplate reader, and cell viability was calculated using the following formula:
[formula] • A (treated): OD value of wells containing cells, CCK-8 solution, and drug solution • A (control): OD value of wells containing cells and CCK-8 solution without drug solution • A (blank): OD value of wells without cells
Please refer to section 8.1 for the experimental procedure, but the drug treatment in this experiment is different from section 8.1. […]

SH-SY5Y neuronal cells [2] = test: TNF-α-induced damage in SH-SY5Y cells (Hoechst 33342 live cell staining); details: 60 ng/ml TNF-α, 48 hours; YN-011 10, 100, 500 nM; GABA 1, 10, 100 μM; combination 100 μM GABA + 100 nM YN-011
Procedure: Digest the SH-SY5Y neuronal cells in a 10 cm culture dish using 0.25% trypsin to prepare a single-cell suspension. Seed the single-cell suspension into a 24-well plate. Place the culture plate in a CO2 incubator and pre-culture overnight at 37° C. with 5% CO2 to allow the cells to adhere. Treat the cells in each well with 20, 40, 60, or 80 ng/ml TNF-α using medium containing 5% FBS at 37° C. for 48 hours. Each drug treatment is performed in three replicate wells. Add the fluorescent dye Hoechst 33342 (Beyotime) at a dilution of 1:1000 to the wells, and incubate the plate at 37° C. for 10 minutes. Remove the culture medium, gently wash twice with PBS, and immediately take the plate to a fluorescence microscope for imaging (20× magnification). Capture 10 fields of view for each cell well and count the number of blue-stained positive cells in each field of view.
Please refer to section 8.7 for the experimental procedure, but the drug treatment in this experiment is different from that in section 8.7. In this experiment, the drug treatment is as follows: using medium containing 5% FBS, treat the cells in each well with 60 ng/ml TNF-α alone or co-treated with 10, 100, or 500 nM YN-011 at 37° C. for 48 hours. Each drug treatment is performed in three replicate wells. […]

SH-SY5Y neuronal cells [3] = test: Apoptosis in TNF-α-induced SH-SY5Y cells (Annexin V-FITC/PI flow cytometry); details: 60 ng/ml TNF-α, 48 hours; YN-011 10, 100, 500 nM; GABA 1, 10, 100 μM; combination 100 μM GABA + 100 nM YN-011
Procedure: Digest the SH-SY5Y neuronal cells in a 10 cm culture dish using 0.25% trypsin to prepare a single-cell suspension. Seed the single-cell suspension into a 12-well plate. Place the culture plate in a CO2 incubator and pre-culture overnight at 37° C. with 5% CO2 to allow the cells to adhere. Using medium containing 5% FBS, treat the cells in each well with 60 ng/ml TNF-α alone or co-treated with 10, 100, or 500 nM YN-011 at 37° C. for 48 hours. Each drug treatment is performed in three replicate wells. Collect the cells and digest the cells with 0.25% trypsin without EDTA for 1 minute. Transfer the cell suspension to a 1.5 ml EP tube, centrifuge at 1000 rpm for 5 minutes, and pellet the cells at the bottom of the tube. Resuspend […] in 100 μl Binding Buffer, add 5 μl of PI and 5 μl of Annexin V-FITC solution, and incubate at room temperature in the dark for 15 minutes. Add 400 μl of Binding Buffer to each tube, and detect using a flow cytometer (Annexin V-FITC excitation wavelength: 488 nm, emission wavelength:
520 nm; PI excitation wavelength: 535 nm, emission wavelength: 617 nm). Count the number of Annexin V-FITC positive cells and PI negative cells in each sample.
Please refer to section 8.14 for the experimental procedure, but the drug treatment in this experiment is different from that in section 8.14. […]

| Molecule | SH-SY5Y cell viability (SH-SY5Y neuronal cells [1]) | TNF-α-induced damage in neuronal cells (Hoechst 33342 positive cells) (SH-SY5Y neuronal cells [2]) | apoptosis in TNF-α-induced neuronal cells (Annexin V-FITC positive, PI negative cells) (SH-SY5Y neuronal cells [3]) |
| --- | --- | --- | --- |
| NCCCC(=O)O [GABA, γ-aminobutyric acid] | significantly enhanced cell viability; also recorded: inhibiting TNF-α-induced reduction in SH-SY5Y cell viability | protective effect | reduces apoptosis; also recorded: reduction of apoptosis |
| B1 | significantly enhanced cell viability; also recorded: inhibiting TNF-α-induced reduction in SH-SY5Y cell viability | protective effect | significantly reduces apoptosis; also recorded: reduction of apoptosis |
